What all share (assay type): in vivo
The subject of assay [1] is Rice (variety: Nipponbare). Nature of the assay: Test Example 2: promotion of root growth by hydroponics of rice, 1 ppm. The following applies: Oryza sativa, hydroponic solution containing the test compound at 1 ppm, average of 4 or 5 individuals, read-out: Relative value of length of seminal root (%-untreated control plot). The protocol:
(§1) Test for Evaluating Promotion of Root Growth by Hydroponics of Rice
(§2) Rice (variety: Nipponbare)
A DMSO solution, which contained one of the compounds 1, 3, 11, 12, 14, 15, 17, 21, 28, 30, 33, 34, 35, 36, 37, 38, 40, 41, 43, 44, 45, 46, 47, 49, 50, 51, 52, 53, 54, 55, 56, 61, 62, 63, 65, 67, 68, 69, 70, 73, 74, 75, 76, 77, 80, 82, 83, 85 and 86 of the present invention at a concentration of 10,000 ppm, was added to Hoagland hydroponic solution (Hoagland and Arnon, California Agricultural Experiment Station 1950 Circular 347 pp. 34) of ¼-fold concentration at a volume ratio of 1/10,000. In this manner, hydroponic solutions containing one of the compounds 1, 3, 11, 12, 14, 15, 17, 21, 28, 30, 33, 34, 35, 36, 37, 38, 40, 41, 43, 44, 45, 46, 47, 49, 50, 51, 52, 53, 54, 55, 56, 61, 62, 63, 65, 67, 68, 69, 70, 73, 74, 75, 76, 77, 80, 82, 83, 85 and 86 of the present invention at 1 ppm were prepared respectively. As an untreated control plot, a hydroponic solution obtained by adding DMSO to Hoagland hydroponic solution of ¼-fold concentration at a volume ratio of 1/10,000 was used. Rice seeds were soaked in a 1% aqueous sodium hypochlorite solution for 10 minutes, then soaked in a 70% ethanol solution for surface sterilization, and then washed with distilled water. The sterilized seeds were soaked in a hydroponic solution containing the test compound described above at 1 ppm and incubated in a dark place for 3 days at 28° C. to perform treatment for hastening germination.
Thereafter, 30 ml of hydroponic solution containing the test compound at 1 ppm was dispensed in a plastic tube (diameter of 20 mm×height of 113 mm) of which the side was covered with cardboard to block light. A float prepared using a styrene board and vinyl mesh was floated, and the rice seeds that had undergone the treatment for hastening germination were placed on the float on the surface of the hydroponic solution. The seeds were cultivated for 3 days at 26° C., an illuminance of 4,000 lux of the top surface of the tube, a humidity of 50%, and a day length of 16 hours.
The nursery plants of rice obtained after cultivation were measured in terms of the length of seminal root by using WinRHIZO system (manufactured by Regent Instruments Inc). For each test plot, an average of the measured values of the seminal root of 4 or 5 individuals was determined.

Assay [2] has as its system Nicotiana benthamiana. Nature of the assay: Test Example 5: growth promotion under low-temperature stress by hydroponics of Nicotiana benthamiana, 1 ppm. The following applies: 1 ppm in medium, low-temperature stress 7 days at 1.5±1.0° C., green leaf area 3 days later, equation (1). The procedure: (§3) Test for Evaluating Growth Promotion Under Low-Temperature Stress by Hydroponics of Nicotiana benthamiana
A DMSO solution, which contained one of the compounds 2, 4, 5, 6, 11, 12, 17, 20, 21, 28, 30, 34, 36, 37, 51, 52, 53, 55, 56, 58, 59, 60, 64, 65, 66, 68, 69, 70, 74, 77, 82, 83, 84, 86 and 87 of the present invention at a concentration of 1,000 ppm, was prepared. The DMSO solution of the compound of the present invention was added at a volume ratio of 1/1,000 to the Murashige•Scoog medium of a ½-fold concentration (a medium containing 2.3 g of mixed salts for the Murashige•Scoog medium (manufactured by Wako Pure Chemical Industries, Ltd.), 200 mg of Myo-inositol (manufactured by Sigma-Aldrich Co. LLC.), 2 mg of nicotinic acid (manufactured by Wako Pure Chemical Industries, Ltd.), 2 mg of pyridoxine hydrochloride (manufactured by Wako Pure Chemical Industries, Ltd.), 20 mg of thiamine hydrochloride (manufactured by Wako Pure Chemical Industries, Ltd.), 20 g of sucrose (manufactured by Wako Pure Chemical Industries, Ltd.), and 1 g of MES (manufactured by DOJINDO LABORATORIES) per 1 L of water and having pH adjusted to 5.8), thereby preparing a medium containing the compound of the present invention at a concentration of 1 ppm.
(§4) Seeds of Nicotiana benthamiana were seeded in the 5 μL of the medium and cultured overnight at 22° C. Thereafter, 45 μL of the medium containing the compound of the present invention at a concentration of 1 ppm was added thereto, and the seeds are cultured for 7 days at 22° C., an illuminance of 4,000 lux, and a day length of 16 hours, and the nursery plants raised from the Nicotiana benthamiana were treated with the compound. Moreover, instead of the above medium, a test plot, which was obtained by performing the same treatment by using a medium prepared by adding DMSO to the Murashige•Scoog medium of ½-fold concentration at a volume ratio of 1/1,000, was used as a control plot not treated with the compound.
(§5) The nursery plants of the Nicotiana benthamiana treated with the compound were subjected to low-temperature treatment by being cultivated for 7 days at 1.5±1.0° C., an illuminance of 2,000 lux, and a day length of 16 hours.
The nursery plants of the Nicotiana benthamiana having undergone the low-temperature stress treatment were cultured for 3 days at 22° C., an illuminance of 4,000 lux, and a day length of 16 hours. Thereafter, the area of green leaf was quantified by Scanalyzer HTS (manufactured by LemnaTec GmbH). Moreover, the value of the control plot not treated with the compound that had not yet been subjected to the low-temperature stress treatment was measured in the same manner. A value of a relative leaf area was calculated based on the following equation (1), and if the value of a relative leaf area was 5 or greater, the compound was evaluated to have a mitigating effect. As a result of the evaluation, it was confirmed that when the plant was treated with one of the compounds 2, 4, 5, 6, 11, 12, 17, 20, 21, 28, 30, 34, 36, 37, 51, 52, 53, 55, 56, 58, 59, 60, 64, 65, 66, 68, 69, 70, 74, 77, 82, 83, 84, 86 and 87 of the present invention at 1 ppm, the value of a relative leaf area was 5 or greater, compared to the area of green leaf of the control plot not treated with compound. Accordingly, it was confirmed that the treatment using the compound of the present invention brings about a growth promotion effect.
(§6) Relative leaf area=100*(a green area of a plot treated with the compound of the present invention−a green area of a control plot not treated with the compound of the present invention)/(a green area of a control plot not treated with the compound of the present invention that has not yet been subjected to low-temperature stress treatment−a green area of a control plot not treated with the compound of the present invention) Equation (1): […]

Assay [3] relates to Nicotiana benthamiana. Nature of the assay: Test Example 4: growth promotion under low-temperature stress by hydroponics of Nicotiana benthamiana, 10 ppm. The following applies: 10 ppm in medium, low-temperature stress 7 days at 1.5±1.0° C., green leaf area 3 days later, equation (1). The procedure: as §3
A DMSO solution, which contained one of the compounds 1, 8, 9, 13, 18, 19, 22, 23, 29, 32, 33, 34, 39, 40, 41, 43, 44, 51, 53, 54, 55, 56, 58, 60, 62, 63, 64, 65, 67, 69, 71, 73, 74, 75, 77, 79, 82, 83 and 86 of the present invention at a concentration of 10,000 ppm, was prepared. The DMSO solution of the compound of the present invention was added at a volume ratio of 1/1,000 to the Murashige•Scoog medium of a ½-fold concentration (a medium containing 2.3 g of mixed salts for the Murashige•Scoog medium (manufactured by Wako Pure Chemical Industries, Ltd.), 200 mg of Myo-inositol (manufactured by Sigma-Aldrich Co. LLC.), 2 mg of nicotinic acid (manufactured by Wako Pure Chemical Industries, Ltd.), 2 mg of pyridoxine hydrochloride (manufactured by Wako Pure Chemical Industries, Ltd.), 20 mg of thiamine hydrochloride (manufactured by Wako Pure Chemical Industries, Ltd.), 20 g of sucrose (manufactured by Wako Pure Chemical Industries, Ltd.), and 1 g of MES (manufactured by DOJINDO LABORATORIES) per 1 L of water and having pH adjusted to 5.8), thereby preparing a medium containing the compound of the present invention at a concentration of 10 ppm.
as §4, with “concentration of 10 ppm was” for “concentration of 1 ppm was”, “seeds are cultivated for 7” for “seeds are cultured for 7”
as §5
The nursery plants of the Nicotiana benthamiana having undergone the low-temperature stress treatment were cultivated for 3 days at 22° C., an illuminance of 4,000 lux, and a day length of 16 hours. Thereafter, the area of green leaf was quantified by Scanalyzer HTS (manufactured by LemnaTec GmbH). Moreover, the value of the control plot not treated with the compound that had not yet been subjected to the low-temperature stress treatment was measured in the same manner. A value of a relative leaf area was calculated based on the following equation (1), and if the value of a relative leaf area was 5 or greater, the compound was evaluated to have a mitigating effect. As a result of the evaluation, it was confirmed that when the plant was treated with one of the compounds 1, 8, 9, 13, 18, 19, 22, 23, 29, 32, 33, 34, 39, 40, 41, 43, 44, 51, 53, 54, 55, 56, 58, 60, 62, 63, 64, 65, 67, 69, 71, 73, 74, 75, 77, 79, 82, 83 and 86 of the present invention at 10 ppm, the value of a relative leaf area was 5 or greater, compared to the area of green leaf of the control plot not treated with compound. Accordingly, it was confirmed that the treatment using the compound of the present invention brings about a growth promotion effect.
as §6

Assay [4] concerns Rice (variety: Nipponbare). As to the kind of experiment: Test Example 1: promotion of root growth by hydroponics of rice, 10 ppm. The following applies: Oryza sativa, hydroponic solution containing the test compound at 10 ppm, average of 4 or 5 individuals, read-out: Relative value of length of seminal root (%-untreated control plot). The procedure:
as §1, §2
Rice seeds were soaked in a 1% aqueous sodium hypochlorite solution for 10 minutes, then soaked in a 70% ethanol solution for surface sterilization, and then washed with distilled water. The sterilized seeds were soaked in a hydroponic solution containing the test compound described above at 10 ppm and incubated in a dark place for 3 days at 28° C. to perform treatment for hastening germination.
Thereafter, 30 ml of hydroponic solution containing the test compound at 10 ppm was dispensed in a plastic tube (diameter of 20 mm×height of 113 mm) of which the side was covered with cardboard to block light. A float prepared using a styrene board and vinyl mesh was floated, and the rice seeds that had undergone the treatment for hastening germination were placed on the float on the surface of the hydroponic solution. The seeds were cultivated for 3 days at 26° C., an illuminance of 4,000 lux of the top surface of the tube, a humidity of 50%, and a day length of 16 hours.
The nursery plants of rice obtained after culturing were measured in terms of the length of seminal root by using WinRHIZO system (manufactured by Regent Instruments Inc). For each test plot, an average of the measured values of the seminal root of 4 or 5 individuals was determined.

Turning to `COC(=O)c1nc2cc(C(F)(F)F)ccc2[nH]1` [Compound 21, methyl 5-(trifluoromethyl)benzimidazole-2-carboxylate], in assay [1], the change in vivo at 1 ppm was greater than 5%. The same molecule had a relative leaf area (% of untreated control) at 1 ppm in assay [2] of no less than 5%.
`COC(=O)c1oc2ccccc2c1N(C)C` [Compound 58] had a relative leaf area at 10 ppm in assay [3] of no less than 5%. This molecule yielded a relative leaf area (% of untreated control) at 1 ppm in assay [2] of no less than 5%.
In turn, `COC(=O)c1oc2ccccc2c1NS(C)(=O)=O` [Compound 60] had a relative leaf area at 10 ppm in assay [3] of no less than 5%. Also, in assay [4], the change in vivo at 10 ppm was greater than 5%. The molecule also registered a relative leaf area (% of untreated control) at 1 ppm in assay [2] of no less than 5%.
